Laboratory results reported in patent US20040110846A1, “Perylenequinones for use with immunotherapy agents” (priority 2004, published 2004).

How the values were obtained:
EMT6 murine mastocytoma = assay: Sonosensitizing potential: LD50 in EMT6 cells in vitro for a fixed dose of ultrasound; type: cell-based
Excerpt: (§1) As used herein, “photopotentiation factor” refers to the property of the compound(s) to exert light- or sound-mediated toxicity in excess of its (their) inherent unactivated toxicity. In a preferred embodiment of the invention, the activation factor may be calculated as the ratio of the LD50 of cells treated without activation to the LD50 of the cells treated with an activated compound (drug LD50 divided by activated drug LD50). Where the term “LD50” has been used above, the term “IC50” may be substituted, to address the bioassays that concern metabolic activity rather than the endpoint of lethality, loss of reproductive capability, or clonogenic death. The relative photoactivation efficiency of a compound may also be determined using a clonogenic assay, an assay that is well known to those skilled in the art.
(§2) for a fixed dose of light or ultrasound

[1] = Absorption (extinction coefficient) in the red spectral region compared with HB; type: physicochemical
Excerpt: A hypocrellin derivative of the present invention also includes 2-butylamino-2-demethoxy-hypocrellin B (2-BA-2-DMHB). […] Compared with its parent compound HB, its absorption bands extend toward longer wavelengths. The extinction coefficient at 583 nm was 2.5-fold as much as HB at 548 nm, and at 621 nm was over 3.8-fold as much as HB at 580 nm.

EMT6 murine = assay: Photosensitizing potential: LD50 in EMT6 cells in vitro for a fixed dose of light; type: cell-based
Excerpt: as §1, §2

Substance | Sonosensitizing Potential (Molar Concentration which exerts LD50) (EMT6 murine mastocytoma) | extinction coefficient at 583 nm relative to HB at 548 nm ([1]; 583 nm vs HB at 548 nm) | extinction coefficient at 621 nm relative to HB at 580 nm ([1]; 621 nm vs HB at 580 nm) | Photosensitizing Potential (Molar Concentration which exerts LD50) (EMT6 murine)
2-(N,N-dimethyl-amino) propylamine-Hypocrellin B [HBDD-R1] | 1.0 mM |  |  | 
2-butylamino-2-demethoxy-Hypocrellin B [DMHBb] | 0.1 mM | 2.5 fold | over 3.8 fold | 0.1 µM
2-morpholino-ethylaminated HB [HBAM-R1] | None |  |  | 4.0 µM
Demethylated-HB [DMHBa] | 1.0 mM |  |  | 3.0 µM
Ethylenediamne-Hypocrellin B [HBED-R2] | None |  |  | 4.0 µM
Hypocrellin A [HA, reference compound] | None |  |  | 4.0 µM
Methylamine-Hypocrellin B [HBMA-IV] | None |  |  | 1.0 µM
